Experimental data taken from ChEMBL document CHEMBL3745625, “Design and synthesis of novel androgen receptor antagonists via molecular modeling” (Bioorg Med Chem, 2016).
Calls of active or inactive are those of the source. No cut-off for these calls is given here.

Key:
LNCaP [1] = assay: Cytotoxicity against human LNCAP cells assessed as reduction in cell viability at 10 uM after 3 days by MTT assay in presence of DHT and E2; assay type: functional, cell-based
[2] = target: T1, Androgen receptor (Mus musculus) (UniProt P19091); assay: Antagonist activity at mouse androgen receptor expressed in mouse C2C12 cells at 5 uM pretreated for 1 day measured 36 hrs post transfection by luciferase reporter gene assay in presence of DHT; assay type: cell-based
T1 sequence (whole entry): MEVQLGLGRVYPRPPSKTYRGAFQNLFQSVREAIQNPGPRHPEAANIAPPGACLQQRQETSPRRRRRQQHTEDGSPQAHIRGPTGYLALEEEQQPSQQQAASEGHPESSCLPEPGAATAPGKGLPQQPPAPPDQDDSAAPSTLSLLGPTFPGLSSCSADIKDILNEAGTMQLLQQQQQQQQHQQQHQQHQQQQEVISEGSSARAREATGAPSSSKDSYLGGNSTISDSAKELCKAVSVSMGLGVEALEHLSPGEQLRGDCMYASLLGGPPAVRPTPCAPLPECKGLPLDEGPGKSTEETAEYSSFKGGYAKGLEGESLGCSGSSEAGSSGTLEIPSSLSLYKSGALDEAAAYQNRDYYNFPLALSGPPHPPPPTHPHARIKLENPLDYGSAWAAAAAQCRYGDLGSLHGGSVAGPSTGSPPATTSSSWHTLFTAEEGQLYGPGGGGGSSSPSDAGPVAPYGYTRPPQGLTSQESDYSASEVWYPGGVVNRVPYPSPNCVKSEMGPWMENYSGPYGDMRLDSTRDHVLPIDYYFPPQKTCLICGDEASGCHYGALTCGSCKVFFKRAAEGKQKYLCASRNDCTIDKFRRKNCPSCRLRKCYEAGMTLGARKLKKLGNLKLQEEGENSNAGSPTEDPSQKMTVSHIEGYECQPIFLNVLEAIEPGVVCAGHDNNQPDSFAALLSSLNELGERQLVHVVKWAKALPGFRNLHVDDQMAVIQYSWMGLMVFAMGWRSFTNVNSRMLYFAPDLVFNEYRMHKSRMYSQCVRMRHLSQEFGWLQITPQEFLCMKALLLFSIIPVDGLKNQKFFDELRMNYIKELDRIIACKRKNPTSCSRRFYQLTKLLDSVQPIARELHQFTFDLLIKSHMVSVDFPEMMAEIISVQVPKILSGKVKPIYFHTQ

LNCaP [3] = assay: Cytotoxicity against human LNCAP cells assessed as growth inhibition at 10 uM after 5 days by MTT assay relative to control; assay type: functional
C2C12 = assay: Cytotoxicity against mouse C2C12 cells assessed as reduction in cell viability at 10 uM after 3 days by MTT assay; assay type: cell-based; details: c2c12, 72 h
[4] = target: T2, Glucocorticoid receptor (Homo sapiens) (UniProt P04150); assay: Antagonist activity at glucocorticoid receptor (unknown origin) expressed in mouse C2C12 cells at 5 uM pretreated for 1 day measured 36 hrs post transfection by luciferase reporter gene assay in presence of GR agonist […]; assay type: cell-based
T2 sequence (whole entry): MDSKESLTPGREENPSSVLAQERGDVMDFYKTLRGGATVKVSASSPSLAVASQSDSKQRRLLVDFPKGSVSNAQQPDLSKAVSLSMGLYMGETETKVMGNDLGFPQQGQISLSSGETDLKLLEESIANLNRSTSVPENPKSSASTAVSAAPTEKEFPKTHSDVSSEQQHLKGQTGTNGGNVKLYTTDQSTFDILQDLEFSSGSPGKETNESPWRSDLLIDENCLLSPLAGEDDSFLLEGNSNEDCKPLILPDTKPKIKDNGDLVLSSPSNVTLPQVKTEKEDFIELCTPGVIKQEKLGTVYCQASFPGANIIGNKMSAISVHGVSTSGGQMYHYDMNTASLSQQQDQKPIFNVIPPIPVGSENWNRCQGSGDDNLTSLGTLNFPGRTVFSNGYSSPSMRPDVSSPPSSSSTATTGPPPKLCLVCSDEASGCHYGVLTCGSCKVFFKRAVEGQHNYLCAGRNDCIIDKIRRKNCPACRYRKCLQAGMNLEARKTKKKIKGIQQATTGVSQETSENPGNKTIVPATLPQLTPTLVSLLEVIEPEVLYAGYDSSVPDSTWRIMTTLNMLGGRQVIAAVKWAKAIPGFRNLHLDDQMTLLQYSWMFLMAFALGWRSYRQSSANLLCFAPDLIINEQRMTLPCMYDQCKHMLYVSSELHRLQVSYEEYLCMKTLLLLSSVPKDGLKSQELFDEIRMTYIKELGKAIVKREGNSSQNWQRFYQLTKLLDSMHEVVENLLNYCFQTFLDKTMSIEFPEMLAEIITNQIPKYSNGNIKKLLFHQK

LNCaP [5] = assay: Cytotoxicity against human LNCAP cells assessed as reduction in cell viability after 4 days by MTT assay in presence of DHT and E2; assay type: functional, cell-based; details: 96 h
[6] = target: T3, Estrogen receptor (Homo sapiens) (UniProt P03372); assay: Antagonist activity at human estrogen receptor expressed in mouse C2C12 cells at 5 uM pretreated for 1 day measured 36 hrs post transfection by luciferase reporter gene assay in presence of ER agonist estradiol; assay type: cell-based
T3 sequence (whole entry): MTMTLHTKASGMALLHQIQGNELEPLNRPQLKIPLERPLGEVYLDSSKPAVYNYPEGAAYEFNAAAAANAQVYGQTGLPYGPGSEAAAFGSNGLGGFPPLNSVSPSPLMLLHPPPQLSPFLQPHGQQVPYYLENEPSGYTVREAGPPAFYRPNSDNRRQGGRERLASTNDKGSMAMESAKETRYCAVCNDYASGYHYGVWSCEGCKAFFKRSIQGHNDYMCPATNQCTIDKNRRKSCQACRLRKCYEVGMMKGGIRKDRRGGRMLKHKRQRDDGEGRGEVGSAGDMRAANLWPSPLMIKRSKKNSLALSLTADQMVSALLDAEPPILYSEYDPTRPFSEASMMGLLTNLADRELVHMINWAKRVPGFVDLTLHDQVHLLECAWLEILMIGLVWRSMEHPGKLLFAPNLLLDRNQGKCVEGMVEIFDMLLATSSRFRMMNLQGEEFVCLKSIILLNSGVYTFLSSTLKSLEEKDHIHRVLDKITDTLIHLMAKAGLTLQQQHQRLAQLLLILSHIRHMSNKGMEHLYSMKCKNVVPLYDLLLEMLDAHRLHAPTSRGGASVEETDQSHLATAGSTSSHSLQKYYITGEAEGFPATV

Row | Compound | Activity (LNCaP [1]) | inhibition [2] | growth inhibition (GI) (LNCaP [3]) | Activity (C2C12) | inhibition [4] | IC50 (LNCaP [5]) | inhibition of growth at 10 µM (LNCaP [3]; 120 h, read-out: GI) | inhibition [6]
1 | CCCOc1ccc2c(c1)CCN(c1ccc(C(=O)Nc3cccc(C)n3)cn1)C2 | Active | Active | Active | Non-toxic | inactive | 1010 nM |  | 
2 | CCCCOc1ccc2c(c1)CCN(c1ccc(C(=O)Nc3cccc(C)n3)cn1)C2 | Active | Active | Active | Non-toxic | inactive | 410 nM |  | 
3 | CC(O)(CS(=O)(=O)c1ccc(F)cc1)C(=O)Nc1ccc(C#N)c(C(F)(F)F)c1 (stereo not drawn) [BICALUTAMIDE] |  |  |  |  |  | 2380 nM |  | 
4 | Cc1cccc(NC(=O)c2ccc(N3CCc4cc(OCCCc5ccccc5)ccc4C3)nc2)n1 | Active | Active |  | Non-toxic | inactive | 350 nM | 80% | 
5 | Cc1cccc(NC(=O)c2ccc(N3CCc4ccccc4C3)nc2)n1 |  |  |  |  |  | 4460 nM |  | 
6 | COc1cccc(NC(=O)c2cnc(N3CCc4ccccc4C3)nc2)c1 | Active | Active |  | Non-toxic | inactive | 580 nM |  | 
7 | Cc1cccc(NC(=O)c2ccc(N3CCc4cc(O)ccc4C3)nc2)n1 | Active | Active | Active | Non-toxic | inactive | 1250 nM |  | Active
8 | COc1ccc2c(c1)CCN(c1cnc(C(=O)Nc3cccc(C)n3)cn1)C2 | Active | Active | Active | Non-toxic | inactive | 490 nM |  | 
